Read-outs that look alike come from different tables or passages of the source.
Tests used:
Assay type in all cases: biochemical
procaspase-6 = molecular target: T1, procaspase-6 (Homo sapiens, UniProt P55212); assay: Executioner procaspase-6 activation assay (Ac-VEID-AFC fluorogenic substrate); details: incubation with compound for 5 h at 37° C.; 100 nM procaspase
T1 sequence (P55212 1-293): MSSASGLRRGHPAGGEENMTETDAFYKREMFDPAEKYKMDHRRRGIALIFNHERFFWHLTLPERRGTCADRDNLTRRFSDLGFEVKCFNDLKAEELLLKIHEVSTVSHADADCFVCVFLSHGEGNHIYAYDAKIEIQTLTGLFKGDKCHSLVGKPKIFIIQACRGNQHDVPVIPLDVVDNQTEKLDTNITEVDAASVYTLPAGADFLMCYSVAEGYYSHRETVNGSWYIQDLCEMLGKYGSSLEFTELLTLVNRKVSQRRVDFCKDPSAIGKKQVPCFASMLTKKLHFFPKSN
Summary of the method: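 Procaspase at 100 nM incubated with compound (100 nM–100 μM) in 50 mM HEPES pH 7.4, KCl, DTT, 0.01% Triton X-100, 3% DMSO, 37 °C for 5 h; then 25 μM Ac-DEVD-AFC (procaspase-7) or Ac-VEID-AFC (procaspase-6), kinetic fluorescence 30 min (ex 365/em 495); EC50 reported.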

procaspase-3 = molecular target: T2, procaspase-3 (Homo sapiens, UniProt P42574); assay: Executioner procaspase-3 activation assay (Ac-DEVD-AFC fluorogenic substrate)
T2 construct: His6 (C); made in house; host or cells: E. coli BL21(DE3)RP, pET-23b
T2 sequence (P42574 1-277): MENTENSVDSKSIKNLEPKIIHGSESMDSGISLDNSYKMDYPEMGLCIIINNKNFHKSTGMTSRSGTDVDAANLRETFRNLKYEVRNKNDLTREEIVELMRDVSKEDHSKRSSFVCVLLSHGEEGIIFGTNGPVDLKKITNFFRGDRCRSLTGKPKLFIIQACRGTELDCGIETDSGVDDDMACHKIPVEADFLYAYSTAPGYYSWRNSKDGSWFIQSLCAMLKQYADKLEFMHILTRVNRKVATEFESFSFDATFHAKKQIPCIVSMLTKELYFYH
Summary of the method: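 Procaspase-3 at 100 nM was incubated with activating compounds (100 nM to 100 uM) in 50 mM HEPES pH 7.4, 50 mM KCl, 1 mM DTT and 0.01% Triton-X100, the detergent limiting aggregation artefacts. Protein, substrate and inhibitor were kept as frozen aliquots and thawed just before use.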

procaspase-7 = molecular target: T3, procaspase-7 (Homo sapiens, UniProt P55210); assay: Executioner procaspase-7 activation assay (Ac-DEVD-AFC fluorogenic substrate); details: incubation with compound for 5 h at 37° C.; 100 nM procaspase
T3 construct: His6 (C); made in house; host or cells: E. coli BL21(DE3)RP, pET-21b
T3 sequence (P55210 1-303): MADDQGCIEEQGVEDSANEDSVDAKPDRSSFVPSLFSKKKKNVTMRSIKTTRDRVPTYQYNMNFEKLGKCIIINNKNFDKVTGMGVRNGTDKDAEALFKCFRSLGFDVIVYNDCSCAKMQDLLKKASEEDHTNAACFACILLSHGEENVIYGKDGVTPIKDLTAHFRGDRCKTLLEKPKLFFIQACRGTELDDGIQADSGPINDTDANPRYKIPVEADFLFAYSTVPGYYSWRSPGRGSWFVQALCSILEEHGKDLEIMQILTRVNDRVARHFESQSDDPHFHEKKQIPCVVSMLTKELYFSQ
Experimental: The executioner procaspase-3, -6 and -7 activation assay protocol involves incubating the target protein at the physiologically-relevant concentration of 100 nM with activating compounds (ranging from 100 nM to 100 uM) in a total volume of 50 μL consisting of a reaction buffer of 50 mM HEPES, pH 7.4, 50 mM KCl, 1 mM DTT and 0.01% Triton-X100 (to reduce false positive hits due to compound aggregation). The procaspase/small molecule incubations are then agitated at 37° C. and assayed at various time points by addition of the fluorogenic peptide substrate 7-Amino-4-trifluoromethylcoumarin-DEVD (Ac-DEVD-AFC) (procaspases-3, -7) or Ac-VEID-AFC (procaspase-6) to a final concentration of 25 μM and analyzed by a kinetic 30 minute assay (excitation 365 nm and emission 495 nm). The final concentration of DMSO in each well is 3% and has no effect on enzyme stability or activity. […] All components of the assay including protein, substrate and inhibitor are stored as frozen aliquots and thawed immediately prior to the assay.
Tables 1 and 2. Procaspase activation as a result of incubation with compound for 5 h at 37° C. (+++ EC50˜0.5-10 μM; ++ EC50˜10-50 μM; + EC50˜50-200 μM; -no activation observed; ND not determined).

[1] = incubation with compound for 5 h at 37° C., 100 nM procaspase, read-out: Procaspase Activation 3

Row | Compound | EC50 (procaspase-6) [µM] | EC50 (procaspase-3; [1]) [µM] | EC50 (procaspase-7) [µM] | EC50 (procaspase-3) [µM]
1 | O=C(Nc1cccc(-c2ccc3ccccc3c2)c1)c1cc2cccc(O)c2oc1=O [compound 80, 8-Hydroxy-2-oxo-2H-chromene-3-carboxylic acid (3-Naphthalen-2-yl-phenyl)-amide] | > 100 | > 100 | > 100 | 
2 | O=C(Nc1cccc(-c2ccc3cc[nH]c3c2)c1)c1cc2cccc(O)c2oc1=O [compound 165, 8-Hydroxy-2-oxo-2H-chromene-3-carboxylic acid [3-(1H-indol-6-yl)-phenyl]-amide] | > 100 |  | > 100 | > 100
3 | COc1cccc2cc(C(=O)Nc3cccc(-c4ccc(Oc5ccccc5)cc4)c3)c(=O)oc12 [compound 60, 8-Methoxy-2-oxo-2H-chromene-3-carboxylic acid (4′-phenoxy-biphenyl-3-yl)-amide] | > 100 | > 100 | > 100 | 
4 | COc1ccc(-c2cccc(NC(=O)c3cc4cccc(OC)c4oc3=O)c2)cc1C [compound 48, 8-Methoxy-2-oxo-2H-chromene-3-carboxylic acid (4′-Methoxy-3′-methyl-biphenyl-3-yl)-amide] | > 100 | > 100 | > 100 | 
5 | CC(C)(C)OC(=O)n1c(-c2cccc(NC(=O)c3cc4cccc(O)c4oc3=O)c2)cc2ccccc21 [compound 175, 2-{3-[(8-Hydroxy-2-oxo-2H-chromene-3-carbonyl)-amino]-phenyl}-indole-1-carboxylic acid tert-butyl ester] | > 100 | > 100 | > 100 | 
6 | COc1ncc(-c2cccc(NC(=O)c3cc4cccc(OC)c4oc3=O)c2)cn1 [compound 134, 8-Methoxy-2-oxo-2H-chromene-3-carboxylic acid [3-(2-methoxy-pyrimidin-5-yl)-phenyl]-amide] | > 100 | > 100 | > 100 | 
7 | O=C(Nc1cccc(-c2cccnc2)c1)c1cc2cccc(O)c2oc1=O [compound 17, 8-Hydroxy-2-oxo-2H-chromene-3-carboxylic acid (3-pyridin-3-yl-phenyl)-amide] | > 100 | > 100 | > 100 | 
8 | COc1cccc2cc(C(=O)Nc3cccc(-c4ccccc4S(=O)(=O)N4CCOCC4)c3)c(=O)oc12 [compound 99, 8-Methoxy-2-oxo-2H-chromene-3-carboxylic acid (2′-(Morpholine-4-sulfonyl)-biphenyl-3-yl)-amide] | > 100 | > 100 | > 100 | 
9 | COc1ccc2cc(-c3cccc(NC(=O)c4cc5cccc(O)c5oc4=O)c3)ccc2c1 [compound 77, 8-Hydroxy-2-oxo-2H-chromene-3-carboxylic acid [3-(6-methoxy-naphthalen-2-yl)-phenyl]-amide] | > 100 | > 100 | 0.5 to 10 | 
10 | COc1cccc2cc(C(=O)Nc3cccc(-c4ccc(C#N)c(F)c4)c3)c(=O)oc12 [compound 144, 8-Methoxy-2-oxo-2H-chromene-3-carboxylic acid (4′-cyano-3′-fluoro-biphenyl-3-yl)-amide] | > 100 | > 100 | > 100 | 
11 | COc1ccc(OC)c(-c2cccc(NC(=O)c3cc4cccc(O)c4oc3=O)c2)c1 [compound 56, 8-Hydroxy-2-oxo-2H-chromene-3-carboxylic acid (2′,5′-dimethoxy-biphenyl-3-yl)-amide] | > 100 | > 100 | > 100 | 
12 | O=C(Nc1cccc(-c2ccc(O)nc2)c1)c1cc2cccc(O)c2oc1=O [compound 139, 8-Hydroxy-2-oxo-2H-chromene-3-carboxylic acid [3-(6-hydroxy-pyridin-3-yl)-phenyl]-amide] | > 100 | > 100 | > 100 | 
13 | COc1cccc2cc(C(=O)Nc3cccc(-c4cnn(Cc5ccccc5)c4)c3)c(=O)oc12 [compound 170, 8-Methoxy-2-oxo-2H-chromene-3-carboxylic acid [3-(1-benzyl-1H-pyrazol-4-yl)-phenyl]-amide] | > 100 | > 100 | > 100 | 
14 | O=C(Nc1cccc(-c2cccc3[nH]ccc23)c1)c1cc2cccc(O)c2oc1=O [compound 167, 8-Hydroxy-2-oxo-2H-chromene-3-carboxylic acid [3-(1H-indol-4-yl)-phenyl]-amide] | > 100 |  | > 100 | > 100
15 | COc1cccc2cc(C(=O)Nc3cccc(-c4ccc5c(ccn5C)c4)c3)c(=O)oc12 [compound 164, 8-Methoxy-2-oxo-2H-chromene-3-carboxylic acid [3-(1-methyl-1H-indol-5-yl)-phenyl]-amide] | > 100 | > 100 | > 100 | 
16 | COc1cccc2cc(C(=O)Nc3cccc(-c4ccnn4C)c3)c(=O)oc12 [compound 152, 8-Methoxy-2-oxo-2H-chromene-3-carboxylic acid [3-(2-methyl-2H-pyrazol-3-yl)-phenyl]-amide] | > 100 | > 100 | > 100 | 
17 | COc1cccc2cc(C(=O)Nc3cccc(-c4cc5ccccc5n4C(=O)OC(C)(C)C)c3)c(=O)oc12 [compound 176, 2-{3-[(8-Methoxy-2-oxo-2H-chromene-3-carbonyl)-amino]-phenyl}-indole-1-carboxylic acid tert-butyl ester] | > 100 | > 100 | > 100 | 
18 | CC(=O)Nc1ccccc1-c1cccc(NC(=O)c2cc3cccc(O)c3oc2=O)c1 [compound 95, 8-Hydroxy-2-oxo-2H-chromene-3-carboxylic acid (2′-acetylamino-biphenyl-3-yl)-amide] | > 100 | > 100 | > 100 | 
19 | O=C(Nc1cccc(-c2ccc3c(c2)CCO3)c1)c1cc2cccc(O)c2oc1=O [compound 74, 8-Hydroxy-2-oxo-2H-chromene-3-carboxylic acid [3-(2,3-Dihydro-benzofuran-5-yl)-phenyl]-amide] | > 100 | > 100 | 10 to 50 | 
20 | O=C(Nc1cccc(-c2ccc3[nH]ccc3c2)c1)c1cc2cccc(OC(F)(F)F)c2oc1=O [compound 94, 8-Trifluoromethoxy-2-oxo-2H-chromene-3-carboxylic acid (3-(1H-Indol-5-yl)-phenyl)-amide] | > 100 |  | > 100 | > 100
21 | COc1ccc(OC)c(-c2cccc(NC(=O)c3cc4cccc(OC)c4oc3=O)c2)c1 [compound 57, 8-Methoxy-2-oxo-2H-chromene-3-carboxylic acid (2′,5′-dimethoxy-biphenyl-3-yl)-amide] | > 100 | > 100 | > 100 | 
22 | CCOc1ccc(-c2cccc(NC(=O)c3cc4cccc(OC)c4oc3=O)c2)cc1 [compound 69, 8-Methoxy-2-oxo-2H-chromene-3-carboxylic acid (4′-ethoxy-biphenyl-3-yl)-amide] | > 100 | > 100 | > 100 | 
23 | COc1ncccc1-c1cccc(NC(=O)c2cc3cccc(O)c3oc2=O)c1 [compound 141, 8-Hydroxy-2-oxo-2H-chromene-3-carboxylic acid [3-(2-methoxy-pyridin-3-yl)-phenyl]-amide] | > 100 | > 100 | 10 to 50 | 

From US8642788B2, “Activators of executioner procaspases 3, 6 and 7” (The Regents of the University of California, priority 2008, dated 2014)
